From patent US20170190705A1, “Compositions and Methods for Inhibiting BMP” (THE BRIGHAM AND WOMAN'S HOSPITAL, INC., priority 2014, published 2017)
Where two headings read alike, the source gives them in different places.

Tests used:
[1] = tested on: HePG2 hepatocarcinoma cells; type: cell-based; details: human
Method: The cells were incubated for 2 h (37° C. and 5% CO2) and allowed to settle and attach. Compounds of interest or DMSO were diluted in DMEM and added at final compound concentrations of 1 μM, 10 μM, and 100 μM. Cells were incubated for 4 hours and 24 hours after which the media was discarded. Cells were lysed by adding 30 μL of passive lysis buffer (Promega) and shaken at RT for 15 min. Cell viability was determined by quantifying the ATP present in each well by adding 10 μL of CellTiter-Glo (Promega) per well and measuring the light output Spectramax L luminometer (Molecular Devices) with an integration time of one second per well. Data was normalized to 100% viability for cells receiving only DMSO without any concurrent compound.

ARG (ABL2) = ARG (ABL2) (Homo sapiens, UniProt P42684); test: Kinome profiling ARG (ABL2); type: biochemical; details: for inhibition at 0.1 µM: 100 nM
Method: (§1) . The kinome-wide selectivity was determined following the methods previously reported by Mohedas et al., ACS Chem Biol 2013, 8, 1291-1302 and Sanvitale et al., PLoS One 2013, 8, e62721.

PYK2 = PYK2 (Homo sapiens, UniProt Q14289); test: Kinome profiling PYK2; type: biochemical; details: read-out: Inhibitory activity PYK2; for inhibition at 0.1 µM: 100 nM
Method: as §1

PKC-α = PKC-α (Homo sapiens, UniProt P17252); test: Kinome profiling PKC-α; type: biochemical; details: read-out: Inhibitory activity PKC-α; for inhibition at 0.1 µM: 100 nM
Method: as §1

TIE2 = TIE2 (Homo sapiens, UniProt Q02763); test: Kinome profiling TIE2; type: biochemical; details: read-out: Inhibitory activity TIE2; for inhibition at 0.1 µM: 100 nM
Method: as §1

JNK2 = JNK2 (Homo sapiens, UniProt P45984); test: Kinome profiling JNK2; type: biochemical; details: read-out: Inhibitory activity JNK2; for inhibition at 0.1 µM: 100 nM
Method: as §1

CAMK2δ = CAMK2δ (Homo sapiens, UniProt Q13557); test: Kinome profiling CAMK2δ; type: biochemical; details: read-out: Inhibitory activity CAMK2δ; for inhibition at 0.1 µM: 100 nM
Method: as §1

RSK3 = RSK3 (Homo sapiens, UniProt Q15349); test: Kinome profiling RSK3; type: biochemical; details: read-out: Inhibitory activity RSK3; for inhibition at 0.1 µM: 100 nM
Method: as §1

NEK7 = NEK7 (Homo sapiens, UniProt Q8TDX7); test: Kinome profiling NEK7; type: biochemical; details: read-out: Inhibitory activity NEK7; for inhibition at 0.1 µM: 100 nM
Method: as §1

DAPK1 = DAPK1 (Homo sapiens, UniProt P53355); test: Kinome profiling DAPK1; type: biochemical; details: read-out: Inhibitory activity DAPK1; for inhibition at 0.1 µM: 100 nM
Method: as §1

FGFR4 = FGFR4 (Homo sapiens, UniProt P22455); test: Kinome profiling FGFR4; type: biochemical; details: read-out: Inhibitory activity FGFR4; for inhibition at 0.1 µM: 100 nM
Method: as §1

CDK1/cyclinB = CDK1/cyclinB (Homo sapiens, UniProt P06493); test: Kinome profiling CDK1/cyclinB; type: biochemical; details: read-out: Inhibitory activity CDK1/cyclinB; for inhibition at 0.1 µM: 100 nM
Method: as §1

CAMK4 = target: T1, CAMK4 (Homo sapiens, UniProt Q16566); test: Kinome profiling CAMK4; type: biochemical; details: read-out: Inhibitory activity CAMK4; for inhibition at 0.1 µM: 100 nM
T1 sequence (Q16566 1-473): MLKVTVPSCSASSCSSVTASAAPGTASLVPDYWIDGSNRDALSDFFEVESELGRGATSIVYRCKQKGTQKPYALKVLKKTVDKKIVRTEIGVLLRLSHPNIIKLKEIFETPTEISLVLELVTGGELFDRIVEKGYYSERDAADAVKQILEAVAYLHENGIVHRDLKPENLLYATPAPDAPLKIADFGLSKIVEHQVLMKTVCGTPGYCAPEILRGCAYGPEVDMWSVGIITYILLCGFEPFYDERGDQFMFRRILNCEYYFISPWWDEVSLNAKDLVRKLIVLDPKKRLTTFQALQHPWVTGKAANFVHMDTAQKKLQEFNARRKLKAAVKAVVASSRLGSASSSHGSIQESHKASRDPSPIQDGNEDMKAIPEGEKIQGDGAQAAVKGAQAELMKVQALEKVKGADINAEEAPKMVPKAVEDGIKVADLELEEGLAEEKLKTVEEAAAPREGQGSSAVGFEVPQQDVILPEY
Method: as §1

SPHK2 = target: T2, SPHK2 (Homo sapiens, UniProt Q9NRA0); test: Kinome profiling SPHK2; type: biochemical; details: read-out: Inhibitory activity SPHK2; for inhibition at 0.1 µM: 100 nM
T2 sequence (Q9NRA0 1-654): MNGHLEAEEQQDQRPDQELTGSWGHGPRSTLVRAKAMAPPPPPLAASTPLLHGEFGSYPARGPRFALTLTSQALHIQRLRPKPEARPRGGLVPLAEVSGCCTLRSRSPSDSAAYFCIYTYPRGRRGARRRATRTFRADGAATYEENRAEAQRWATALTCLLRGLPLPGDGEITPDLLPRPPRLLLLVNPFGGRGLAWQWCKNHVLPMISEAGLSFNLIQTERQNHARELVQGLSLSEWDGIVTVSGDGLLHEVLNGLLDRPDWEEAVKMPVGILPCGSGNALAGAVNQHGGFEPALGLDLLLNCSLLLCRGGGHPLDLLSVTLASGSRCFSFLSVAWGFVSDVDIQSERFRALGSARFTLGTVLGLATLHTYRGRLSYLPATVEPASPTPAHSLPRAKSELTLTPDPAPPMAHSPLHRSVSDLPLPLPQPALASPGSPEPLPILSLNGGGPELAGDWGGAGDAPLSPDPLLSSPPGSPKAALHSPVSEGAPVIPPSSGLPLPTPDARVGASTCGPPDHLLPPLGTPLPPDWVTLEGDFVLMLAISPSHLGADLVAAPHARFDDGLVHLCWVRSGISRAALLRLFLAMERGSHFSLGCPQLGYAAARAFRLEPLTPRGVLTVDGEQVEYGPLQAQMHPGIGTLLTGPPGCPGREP
Method: as §1

[2] = Table 4, read-out: Inhibitory Activity ARG
[3] = read-out: Inhibitory activity ARG (ABL2)

Chain of NEK7 (Q8TDX7 whole entry): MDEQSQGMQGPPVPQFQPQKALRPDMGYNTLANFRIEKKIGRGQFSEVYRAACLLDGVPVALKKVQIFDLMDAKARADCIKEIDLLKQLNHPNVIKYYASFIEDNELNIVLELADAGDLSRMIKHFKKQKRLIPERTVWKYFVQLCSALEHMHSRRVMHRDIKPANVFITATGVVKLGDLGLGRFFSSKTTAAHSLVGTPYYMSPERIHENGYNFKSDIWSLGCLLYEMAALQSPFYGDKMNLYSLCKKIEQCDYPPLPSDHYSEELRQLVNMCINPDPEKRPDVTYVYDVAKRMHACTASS
Chain of TIE2 (Q02763 23-1124): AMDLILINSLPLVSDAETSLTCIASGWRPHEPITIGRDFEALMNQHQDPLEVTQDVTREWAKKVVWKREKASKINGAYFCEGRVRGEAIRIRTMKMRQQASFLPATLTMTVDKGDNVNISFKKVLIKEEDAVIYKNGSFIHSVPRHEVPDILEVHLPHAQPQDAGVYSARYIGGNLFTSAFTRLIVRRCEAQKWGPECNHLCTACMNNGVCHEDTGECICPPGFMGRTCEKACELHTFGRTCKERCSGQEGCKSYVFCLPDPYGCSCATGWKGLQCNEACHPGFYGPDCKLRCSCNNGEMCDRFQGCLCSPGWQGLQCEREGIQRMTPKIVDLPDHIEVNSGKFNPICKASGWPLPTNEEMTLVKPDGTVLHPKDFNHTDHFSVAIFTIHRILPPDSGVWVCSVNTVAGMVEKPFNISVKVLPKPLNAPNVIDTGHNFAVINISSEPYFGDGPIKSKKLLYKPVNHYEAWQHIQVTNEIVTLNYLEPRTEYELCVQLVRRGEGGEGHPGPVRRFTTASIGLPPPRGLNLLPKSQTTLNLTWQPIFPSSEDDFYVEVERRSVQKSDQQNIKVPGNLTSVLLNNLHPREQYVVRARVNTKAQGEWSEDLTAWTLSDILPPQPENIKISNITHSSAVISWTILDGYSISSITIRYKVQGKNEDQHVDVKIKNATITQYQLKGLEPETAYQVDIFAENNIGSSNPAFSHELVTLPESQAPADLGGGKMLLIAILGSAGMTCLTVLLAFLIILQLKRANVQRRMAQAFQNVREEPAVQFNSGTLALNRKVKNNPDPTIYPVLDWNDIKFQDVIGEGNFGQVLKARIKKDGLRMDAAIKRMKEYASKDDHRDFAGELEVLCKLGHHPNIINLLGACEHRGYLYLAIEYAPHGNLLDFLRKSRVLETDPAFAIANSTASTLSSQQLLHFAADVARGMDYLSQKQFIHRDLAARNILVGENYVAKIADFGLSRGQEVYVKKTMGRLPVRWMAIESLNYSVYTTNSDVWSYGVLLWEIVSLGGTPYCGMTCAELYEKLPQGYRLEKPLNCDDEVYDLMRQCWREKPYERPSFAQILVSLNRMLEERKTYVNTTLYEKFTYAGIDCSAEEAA
Chain of CDK1/cyclinB (P06493 whole entry): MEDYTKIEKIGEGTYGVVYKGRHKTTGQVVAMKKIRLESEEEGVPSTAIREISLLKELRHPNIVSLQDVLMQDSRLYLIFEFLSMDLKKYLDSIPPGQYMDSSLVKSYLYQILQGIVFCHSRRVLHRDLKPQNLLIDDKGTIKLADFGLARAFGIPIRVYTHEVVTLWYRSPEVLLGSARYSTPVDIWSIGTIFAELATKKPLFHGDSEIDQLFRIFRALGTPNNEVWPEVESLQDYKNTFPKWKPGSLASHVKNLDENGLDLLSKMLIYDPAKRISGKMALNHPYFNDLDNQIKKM
Chain of CDK1/cyclinB (P14635 whole entry partner): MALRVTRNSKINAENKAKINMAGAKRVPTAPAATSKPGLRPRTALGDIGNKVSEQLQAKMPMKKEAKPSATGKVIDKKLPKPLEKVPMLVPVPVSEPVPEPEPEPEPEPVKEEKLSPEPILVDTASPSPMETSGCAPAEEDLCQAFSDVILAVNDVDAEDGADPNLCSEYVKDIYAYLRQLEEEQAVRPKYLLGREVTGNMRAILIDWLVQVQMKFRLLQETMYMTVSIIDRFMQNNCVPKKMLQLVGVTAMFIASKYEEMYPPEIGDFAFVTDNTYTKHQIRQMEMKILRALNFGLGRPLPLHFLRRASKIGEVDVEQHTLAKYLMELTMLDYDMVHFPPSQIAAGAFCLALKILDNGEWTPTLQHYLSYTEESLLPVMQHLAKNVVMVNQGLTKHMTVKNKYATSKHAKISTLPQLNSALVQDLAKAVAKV
Chain of FGFR4 (P22455 22-802): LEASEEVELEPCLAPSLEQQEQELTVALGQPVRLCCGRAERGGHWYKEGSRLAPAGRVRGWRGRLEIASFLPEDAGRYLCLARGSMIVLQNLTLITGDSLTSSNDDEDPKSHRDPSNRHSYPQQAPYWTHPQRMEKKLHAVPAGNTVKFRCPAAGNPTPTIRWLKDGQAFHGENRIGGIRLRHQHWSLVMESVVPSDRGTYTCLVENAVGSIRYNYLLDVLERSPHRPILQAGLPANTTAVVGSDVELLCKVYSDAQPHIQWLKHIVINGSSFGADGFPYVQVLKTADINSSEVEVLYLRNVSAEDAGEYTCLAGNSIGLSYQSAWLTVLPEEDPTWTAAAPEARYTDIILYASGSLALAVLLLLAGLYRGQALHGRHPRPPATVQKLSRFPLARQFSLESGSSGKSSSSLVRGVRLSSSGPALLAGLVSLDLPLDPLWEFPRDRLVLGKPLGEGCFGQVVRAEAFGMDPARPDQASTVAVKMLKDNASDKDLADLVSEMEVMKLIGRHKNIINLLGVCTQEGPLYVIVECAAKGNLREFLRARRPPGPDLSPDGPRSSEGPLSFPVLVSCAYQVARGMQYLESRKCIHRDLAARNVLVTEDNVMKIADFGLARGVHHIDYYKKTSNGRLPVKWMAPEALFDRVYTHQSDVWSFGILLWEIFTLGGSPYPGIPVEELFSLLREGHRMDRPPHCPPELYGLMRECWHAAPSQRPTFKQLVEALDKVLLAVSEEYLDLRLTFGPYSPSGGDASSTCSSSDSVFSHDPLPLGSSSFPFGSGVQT
Chain of ARG (ABL2) (P42684 whole entry): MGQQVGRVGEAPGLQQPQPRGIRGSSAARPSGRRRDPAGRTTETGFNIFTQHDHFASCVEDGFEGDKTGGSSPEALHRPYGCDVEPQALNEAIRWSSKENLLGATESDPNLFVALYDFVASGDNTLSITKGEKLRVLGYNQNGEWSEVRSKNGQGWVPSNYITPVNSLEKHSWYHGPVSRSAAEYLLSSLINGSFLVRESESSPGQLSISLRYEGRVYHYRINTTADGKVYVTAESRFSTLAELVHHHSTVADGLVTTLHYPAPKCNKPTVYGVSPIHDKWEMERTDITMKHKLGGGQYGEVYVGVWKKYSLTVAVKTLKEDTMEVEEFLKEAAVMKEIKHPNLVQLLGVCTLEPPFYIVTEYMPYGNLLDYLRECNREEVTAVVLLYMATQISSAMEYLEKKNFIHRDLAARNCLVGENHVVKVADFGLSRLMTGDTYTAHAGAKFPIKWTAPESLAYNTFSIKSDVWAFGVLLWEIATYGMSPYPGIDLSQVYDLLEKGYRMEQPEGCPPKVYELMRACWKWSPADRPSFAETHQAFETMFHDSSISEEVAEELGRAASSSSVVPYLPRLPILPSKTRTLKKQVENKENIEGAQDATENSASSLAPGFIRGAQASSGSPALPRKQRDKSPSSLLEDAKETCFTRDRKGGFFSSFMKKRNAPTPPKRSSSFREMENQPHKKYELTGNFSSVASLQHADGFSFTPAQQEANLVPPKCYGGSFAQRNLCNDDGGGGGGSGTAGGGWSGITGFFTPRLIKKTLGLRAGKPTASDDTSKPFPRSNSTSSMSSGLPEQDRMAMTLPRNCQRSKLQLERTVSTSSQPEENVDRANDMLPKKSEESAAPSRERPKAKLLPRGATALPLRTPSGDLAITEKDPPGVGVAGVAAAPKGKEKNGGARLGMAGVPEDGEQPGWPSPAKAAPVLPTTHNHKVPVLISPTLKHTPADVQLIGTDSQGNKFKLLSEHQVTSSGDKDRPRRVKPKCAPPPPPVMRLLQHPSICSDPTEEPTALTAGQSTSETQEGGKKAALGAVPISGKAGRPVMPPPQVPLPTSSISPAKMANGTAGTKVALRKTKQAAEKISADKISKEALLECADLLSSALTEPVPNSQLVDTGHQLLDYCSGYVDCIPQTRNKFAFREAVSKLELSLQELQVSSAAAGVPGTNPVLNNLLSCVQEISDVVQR
Chain of RSK3 (Q15349 whole entry): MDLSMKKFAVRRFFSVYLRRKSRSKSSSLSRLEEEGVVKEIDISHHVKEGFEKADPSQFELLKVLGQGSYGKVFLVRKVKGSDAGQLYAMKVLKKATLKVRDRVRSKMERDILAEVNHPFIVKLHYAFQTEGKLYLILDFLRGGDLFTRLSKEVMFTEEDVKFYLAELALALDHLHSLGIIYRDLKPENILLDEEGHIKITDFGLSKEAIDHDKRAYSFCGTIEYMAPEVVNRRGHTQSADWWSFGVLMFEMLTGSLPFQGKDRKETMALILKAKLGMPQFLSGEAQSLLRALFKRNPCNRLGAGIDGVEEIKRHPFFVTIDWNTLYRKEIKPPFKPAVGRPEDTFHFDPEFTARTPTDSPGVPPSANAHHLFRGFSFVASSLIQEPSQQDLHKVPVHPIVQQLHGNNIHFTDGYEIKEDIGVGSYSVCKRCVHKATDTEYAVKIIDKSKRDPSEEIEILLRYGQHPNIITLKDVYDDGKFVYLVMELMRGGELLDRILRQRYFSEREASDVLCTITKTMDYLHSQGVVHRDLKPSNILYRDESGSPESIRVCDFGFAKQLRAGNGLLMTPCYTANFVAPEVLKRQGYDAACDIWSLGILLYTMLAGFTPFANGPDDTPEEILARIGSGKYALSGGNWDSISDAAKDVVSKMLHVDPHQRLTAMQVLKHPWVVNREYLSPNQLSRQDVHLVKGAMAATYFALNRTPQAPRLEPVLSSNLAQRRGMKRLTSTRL

SMILES | Cell viability ([1]; 4 h, 1 μM) [%] | Cell viability ([1]; 4 h, 10 μM) [%] | Cell viability ([1]; 4 h, 100 μM) [%] | Cell viability ([1]; 24 h, 1 μM) [%] | Cell viability ([1]; 24 h, 10 μM) [%] | Cell viability ([1]; 24 h, 100 μM) [%] | inhibition at 0.1 µM (ARG (ABL2); [3]) [%] | inhibition at 1 µM (ARG (ABL2); [3]) [%] | inhibition at 0.1 µM (PYK2) [%] | inhibition at 1 µM (PYK2) [%] | inhibition at 0.1 µM (PKC-α) [%] | inhibition at 1 µM (PKC-α) [%] | inhibition at 0.1 µM (TIE2) [%] | inhibition at 1 µM (TIE2) [%] | inhibition at 0.1 µM (JNK2) [%] | inhibition at 1 µM (JNK2) [%] | inhibition at 0.1 µM (CAMK2δ) [%] | inhibition at 1 µM (CAMK2δ) [%] | inhibition at 0.1 µM (RSK3) [%] | inhibition at 1 µM (RSK3) [%] | other results
COc1cc(-c2cc(-c3ccc(N4CCNCC4)cc3)cnc2C)cc(OC)c1OC [Compound 10, 1-(4-(6-methyl-5-(3,4,5-trimethoxyphenyl)pyridin-3-yl)phenyl)piperazine] | 91 | 100 | 88 | 92 | 78 | 77 | 17 | 62 | 1 | 5 | 2 | 3 | 1 | 0 | 0 | 2 | 1 | 1 | 3 | 3 | inhibition at 0.1 µM (ARG (ABL2); [2]): 17%; inhibition at 1 µM (ARG (ABL2); [2]): 62%; inhibition at 0.1 µM (NEK7): 4%; inhibition at 1 µM (NEK7): 3%; inhibition at 0.1 µM (DAPK1): -1%; inhibition at 1 µM (DAPK1): -1%; inhibition at 0.1 µM (FGFR4): 1%; inhibition at 1 µM (FGFR4): 2%; inhibition at 0.1 µM (CDK1/cyclinB): 2%; inhibition at 1 µM (CDK1/cyclinB): 3%; inhibition at 0.1 µM (CAMK4): 0%; inhibition at 1 µM (CAMK4): -1%; inhibition at 0.1 µM (SPHK2): 13%; inhibition at 1 µM (SPHK2): 5%
COc1cc(-c2cc(-c3ccc(N4CCNCC4)cc3)cnc2N)cc(OC)c1OC [Compound 15, 5-(4-(piperazin-1-yl)phenyl)-3-(3,4,5-trimethoxyphenyl)pyridin-2-amine] | 95 | 103 | 103 | 96 | 96 | 23 | 60 | 81 | 10 | 14 | 1 | 6 | 1 | 6 | 2 | 3 | 1 | 3 | 2 | 3 | inhibition at 0.1 µM (NEK7): 9%; inhibition at 1 µM (NEK7): 2%; inhibition at 0.1 µM (DAPK1): 1%; inhibition at 1 µM (DAPK1): 0%; inhibition at 0.1 µM (FGFR4): 1%; inhibition at 1 µM (FGFR4): 0%; inhibition at 0.1 µM (CDK1/cyclinB): -1%; inhibition at 1 µM (CDK1/cyclinB): 0%; inhibition at 0.1 µM (CAMK4): 21%; inhibition at 1 µM (CAMK4): -1%; inhibition at 0.1 µM (SPHK2): 6%; inhibition at 1 µM (SPHK2): -6%
